Laboratory results as given in publication PMC6204718, “GCDB: a glaucomatous chemogenomics database for in silico drug discovery” (Database: The Journal of Biological Databases and Curation, 2018).
Read-outs that look alike come from different tables or passages of the source.

Key:
[1] = biological target: T1, human A3AR (Homo sapiens, UniProt P0DMS8); assay: A3AR cell-based functional assay (A3AR-mediated cAMP production, CHO-ADORA3 cells); details: for IC50: target A3AR, cAMP level of ADORA3-CHO cells elicited by NECA
T1 construct: host or cells: CHO-K1 (CHO-ADORA3)
T1 sequence (P0DMS8 1-318): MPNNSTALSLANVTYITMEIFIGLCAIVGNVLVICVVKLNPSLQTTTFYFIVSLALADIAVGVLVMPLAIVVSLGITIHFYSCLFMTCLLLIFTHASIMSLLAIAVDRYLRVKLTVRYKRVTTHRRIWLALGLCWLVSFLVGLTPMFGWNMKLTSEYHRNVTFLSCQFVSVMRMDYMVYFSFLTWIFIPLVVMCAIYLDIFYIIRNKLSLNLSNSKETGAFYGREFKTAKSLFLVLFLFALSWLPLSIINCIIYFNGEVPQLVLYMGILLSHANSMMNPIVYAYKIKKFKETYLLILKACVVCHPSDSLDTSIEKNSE
Method: (§1) Pharmaron (Beijing) was commissioned to perform in vitro inhibition screening of hGR and A3AR.
The four test compounds were evaluated as A3AR antagonists by A3AR-mediated cAMP production in cell-based functional assays. CHO-ADORA3 cells in which the A3AR was transfected in engineered CHO-K1 cells (PerkinElmer) to express the human A3AR were employed. The cells were collected by centrifugation and resuspended with Hank’s Buffered Saline Solution, 5 mM 4-(2-hydroxyethyl)-1-piperazineethanesulfonic acid (HEPES), 0.1% bovine serum albumin (BSA) stabilizer (pH 7.4) and 10 μM Rolipram. 2000 cells per well were added to 384 wells solid white plate. Test compounds were prepared with DMSO in 3-fold serial dilutions of 11 concentrations and dispensed to assay plates. Each compound was tested within the range of 1.69 × 10^-3–100 μM. The serial dilutions of adenosine-5′-N-ethyluronamide (NECA, 10 nl/well) was transferred to 384 wells and incubated at room temperature for 30 min. A LANCE cAMP 384 kit (Perkin Elmer, USA) was used to measure the intracellular cAMP levels. Forskolin (1 μM) was used to stimulate adenylyl cyclase activity and induce cAMP production. NECA and VUF-5574 were used as reference compounds.

[2] = biological target: T2, human glucocorticoid receptor (hGR) (Homo sapiens, UniProt P04150); assay: hGR reporter gene assay (GR-GAL4 chimeric receptor, antagonist mode); format: cell-based
T2 construct: expressed in transfected cells; host or cells: HEK293T
T2 sequence (P04150 524-758 limits assumed): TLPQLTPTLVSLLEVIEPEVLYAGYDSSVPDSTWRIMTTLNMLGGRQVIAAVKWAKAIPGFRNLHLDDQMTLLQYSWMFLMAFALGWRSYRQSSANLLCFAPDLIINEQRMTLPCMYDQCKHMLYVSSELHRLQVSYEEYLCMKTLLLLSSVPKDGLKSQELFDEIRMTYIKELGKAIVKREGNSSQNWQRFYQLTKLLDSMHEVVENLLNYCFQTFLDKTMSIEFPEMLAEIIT
Source text: as §1
The coding sequence of hGR ligand-binding domain was inserted into the pBIND expression vector (Promega, E1581) to express GR-GAL4 binding domain chimeric receptors. The expression vector and reporter vector were co-transfected into HEK293T host cells. The principle of the assay is that once the agonist binds to the corresponding GR-GAL4 chimeric receptor, the reporter gene is activated after binding of the chimeric receptor to the GAL4 binding sites. When the antagonist and agonist are in the system, the antagonist will compete with the agonist for binding to the GR-GAL4 chimeric receptor, inhibiting the reporter gene. Cyproterone was used as a positive control. All six test compounds were prepared in dimethyl sulfoxide (DMSO) at 10 mM and further diluted. Each compound was added to wells at final concentrations of 100 μM, 50 μM, 16.67 μM, 5.56 μM, 1.85 μM, 0.62 μM, 0.21 μM, 0.07 μM, 0.02 μM, 0.008 μM and 0.003 μM.

[3] = target GR, GR-GAL4 reporter gene assay in HEK293T cells, read-out: IC50 (half-maximal inhibitory concentration)
[4] = read-out: IC50 (half-maximal inhibitory concentration)

CC1(O)CCC2C3CCC4=CC(=O)CCC4C3CCC21C (centres unmarked) [A3-4]
IC50 ([1]; IC50 (half-maximal inhibitory concentration)): > 10 µM

CC(=O)OCC(=O)C1(OC(C)=O)CCC2C3CCC4=CC(=O)C=CC4(C)C3C(=O)CC21C (centres unmarked) [GR-6]
IC50 [2, 3]: 8.6 µM

CC(=O)C1(O)CCC2C3CCC4(C)CC(=O)CCC4(C)C3C(=O)CC21C (centres unmarked) [GR-3]
IC50 [2, 3]: 27 µM

NC(=O)c1nnc2cc(-c3ccccc3)nn2c1-c1ccccc1Cl [A3-2]
IC50 [1, 4]: > 10 µM

CC(=O)OC1CCC2(C)C(=CCC3C2CCC2(C)C(OC(=O)c4ccccc4)CCC32)C1 (centres unmarked) [GR-1]
IC50 [2]: 28.4 µM

O/N=C/c1cn(-c2ccccc2)nc1-c1ccccc1 [A3-3]
LE value ([1]; ligand efficiency based on IC50, 20 heavy atoms): 0.36 kcal/mol
IC50 [1, 4]: 6.15 µM

O=S(=O)(Nc1cccc(-c2nc3ccccc3s2)c1)c1ccc(F)c(Cl)c1 [GR-5]
IC50 [2, 3]: 18 µM

CC(=O)Nc1ccc(S(=O)(=O)Nc2cc(C(F)(F)F)cc(C(F)(F)F)c2)cc1 [A3-1]
IC50 [1, 4]: > 10 µM

C#CC1(O)CCC2C3CCc4cc(Oc5ccc([N+](=O)[O-])cc5)ccc4C3CCC21C (centres unmarked) [GR-2]
IC50 [2, 3]: 2.92 µM

Cc1nnc(SCC(=O)Nc2ccc(S(N)(=O)=O)cc2)c2nn(-c3ccccc3)c(C)c12 [GR-4]
IC50 [2, 3]: 23.5 µM
